What was measured:
[1] = biological target: rabbit anti-EPS antibodies; assay: competition ELISA: inhibition of binding of rabbit antibodies to EPS (FIG. 3); conditions: binding of antibodies evoked in rabbits to EPS; for 50 per cent inhibition concentration: FIG. 3, EPS species not stated
Method: (§1) The inhibition characteristics were determined using a "competition" enzyme-linked immunosorbent assay (ELISA). Microtiter polyvinyl wells (Cooke, Dynatech) were coated with polysaccharides which had been isolated from culture fluids of moulds. For this purpose 0.1 ml of 0.07 M phosphate buffer, pH 7.2, with 0.15 M NaCl (PBS) and 1 μg polysaccharide were added to each well of the plate. After incubating for one night with shaking at 20° C., the wells were washed under a continuous stream of tap water with 0.05% Tween 20 for 0.5 min. A prepared mixture of 50 μl antibodies (rabbit IgG and human sera respectively), diluted in PBS, which contained 0.05% Tween 20 and 2% bovine serum albumin, and 50 μl inhibitor, which was diluted in the same buffer, were then added. After an incubation time of 60 minutes the wells were washed in the manner described above. The quantity of antibodies which was absorbed on the polysaccharides was determined with sheep-anti-rabbit-globulins and with sheep-anti-human-globulins respectively which were conjugated to peroxidase. For this purpose 0.1 ml conjugate diluted in PBS, which contained 0.05% Tween 20, was added to each well (dilution was checked using the checker board titration). The incubation and the washing were carried out in the manner described for the prepared test sample (mixture of serum or IgG and inhibitor).
(§2) The enzyme reaction was determined spectrophotometrically at 449 nm after adding a solution of 5-amino-salicylic acid and H2 O2 (0.1 ml 0.07% 5-amino-salicylic acid, pH 6.0, and 0.005% H2 O2 were added to each well) and an incubation for 30 minutes at 20° C.
The human serum and rabbit IgG solutions were diluted to concentrations at which the extinction coefficients without inhibitor start to decrease (extinction value approximately 0.70). Methyl-β-D-galactofuranoside and the dimers to heptamers inclusive of (1-5)-coupled β-D-galactofuranosides were used as inhibitors. […] The percentage inhibition was calculated as 100--100 (extinction with inhibitor - extinction without inhibitor).

[2] = test system: human antibody binding to extracellular polysaccharides of Penicillium and Aspergillus species; assay: competition ELISA: inhibition of human antibody binding of 40 serum samples to EPS; conditions: 40 human serum samples
Method: A total of 40 serum samples were collected arbitrarily from healthy Dutch males and females aged between 15 and 65.
as §1, §2
The human serum and rabbit IgG solutions were diluted to concentrations at which the extinction coefficients without inhibitor start to decrease (extinction value approximately 0.70). Methyl-β-D-galactofuranoside and the dimers to heptamers inclusive of (1-5)-coupled β-D-galactofuranosides were used as inhibitors. The inhibition effect of dimers of (1-2)-, (1-3)- and (1-6)-coupled β-D-galactofuranoside was also investigated (see Table B). The percentage inhibition was calculated as 100--100 (extinction with inhibitor - extinction without inhibitor).
The inhibition of the human antibody binding to EPS of moulds was tested with 40 serum samples using the tetramer of (1-5)-coupled β-D-galactofuranoside as inhibitor. The EPS in these tests originated from P. digitatum, P. cyclopium, P. dierckxii, P. funiculosum, A. niger, A. fumigatus and A. repens. Antibodies against P. funiculosum were not detectable in any serum sample, while antibodies against the other EPS derivatives were present in all 40 serum samples. The titers (reciprocal value of the dilution which gives the extinction equal to the mean value for 10 blank samples+2.81×standard deviation of these blank samples; confidence limit 99%), were in a range from 400 to 6,000. There was a significant correlation 99%) between the presence of antibodies in each serum and against the various Penicillium/Aspergillus EPS derivatives which were tested (Spearman Rank correlation test).

rabbit IgG anti-EPS = assay: specific inhibition test in sandwich ELISA on walnut and herb samples; format: binding; conditions: 50 μg/ml inhibitor
Method: A sandwich ELISA was used to ascertain whether (1-5)-coupled β-D-galactofuranosyl radicals were capable of binding antibodies. 0.1 ml portions containing 10 μg/ml rabbit IgG anti-EPS, which was diluted in PBS, were introduced into wells of polyvinyl plates and incubated overnight with shaking at 20° C. After washing in the manner described above, 0.1 ml samples containing β-(1-5)coupled galactofuranosyl radicals in PBS with 0.05% Tween 20 and 2% bovine serum albumin were added. After an incubation time of 60 minutes the plates were washed. 0.1 ml of an optimum dilution (=dilution was checked using the checker board titration) of rabbit IgG anti-EPS, conjugated with peroxidase, diluted in PBS with 0.05% Tween 20 was then added to each well. The incubation and the washing were carried out in the manner described above. The enzyme reaction was also determined in the manner described above.
In addition an immunological determination, described under (F), of Penicillium and Aspergillus species was carried out on 16 samples of walnuts and 9 samples of herbs, use being made of rabbit IgG and, respectively 50 μg/ml of a framer of (1-5)-coupled β-D-galactofuranoside per test sample. The EPS antigen possibly present in the abovementioned products was extracted by boiling with a phosphate-buffered physiological saline solution.

CO[C@@H]1O[C@@H]([C@H](O)CO)[C@H](O)[C@H]1O [monomer, Methyl β-D-galactofuranoside]
50 per cent inhibition concentration [1]: approximately 10,000 μg/ml

tetramer of (1-5)-coupled β-D-galactofuranoside
Number of samples with an inhibition of 25% ([2]; inhibitor 4 μg/ml): 15 | Number of samples with an inhibition of 50% ([2]; inhibitor 4 μg/ml): 0 | Number of samples with an inhibition of 90% ([2]; inhibitor 4 μg/ml): 0 | Number of samples with an inhibition of 25% ([2]; inhibitor 20 μg/ml): 34 | Number of samples with an inhibition of 50% ([2]; inhibitor 20 μg/ml): 12 | Number of samples with an inhibition of 90% ([2]; inhibitor 20 μg/ml): 0 | Number of samples with an inhibition of 25% ([2]; inhibitor 100 μg/ml): 36 | Number of samples with an inhibition of 50% ([2]; inhibitor 100 μg/ml): 32 | Number of samples with an inhibition of 90% ([2]; inhibitor 100 μg/ml): 0 | Number of samples with an inhibition of 25% ([2]; inhibitor 500 μg/ml): 37 | Number of samples with an inhibition of 50% ([2]; inhibitor 500 μg/ml): 36 | Number of samples with an inhibition of 90% ([2]; inhibitor 500 μg/ml): 15 | concentration giving complete inhibition (100%) [1]: 100 µg/mL | 50 per cent inhibition concentration [1]: 30 µg/mL | Number of samples with inhibition >50% (rabbit IgG anti-EPS; Herbs, 4 samples, ELISA titer >50,000): 4 | Number of samples with inhibition >50% (rabbit IgG anti-EPS; Herbs, 5 samples, ELISA titer 5000-50,000): 5 | Number of samples with inhibition >50% (rabbit IgG anti-EPS; Nuts, 3 samples, ELISA titer 100-500): 3 | Number of samples with inhibition >50% (rabbit IgG anti-EPS; Nuts, 4 samples, ELISA titer 5000-50,000): 4 | Number of samples with inhibition >50% (rabbit IgG anti-EPS; Nuts, 9 samples, ELISA titer 500-5000): 7

Reference: US5149632A, “Method for the detection of molds in foodstuffs and human and animal body fluids” (De Staat Der Nedelranden Vertengwoordigd Door De Minister …, priority 1988, dated 1992)
